Source: publication PMC7265341, “Quantifying CDK inhibitor selectivity in live cells” (Nature Communications, 2020)
Read-outs that look alike come from different tables or passages of the source.

What was measured:
CDK9/Cyclin K = CDK9/Cyclin K (Homo sapiens, UniProt P50750); assay: NanoBRET live-cell target engagement, NanoLuc-CDK9/Cyclin K in HEK-293; type: binding; conditions: CDK9/K, 10µM
CDK15/Cyclin Y = CDK15/Cyclin Y (Homo sapiens, UniProt Q96Q40); assay: NanoBRET live-cell target engagement, NanoLuc-CDK15/Cyclin Y in HEK-293; type: binding; conditions: for IC50: CDK15/Y
CDK4/Cyclin D1 = CDK4/Cyclin D1 (Homo sapiens, UniProt P11802); assay: NanoBRET live-cell target engagement, NanoLuc-CDK4/Cyclin D1 in HEK-293; type: binding; conditions: CDK4/D1
CDK14/Cyclin Y = CDK14/Cyclin Y (Homo sapiens, UniProt O94921); assay: NanoBRET live-cell target engagement, CDK14-NanoLuc/Cyclin Y in HEK-293; type: binding; conditions: for IC50: CDK14/Y
CDK13/Cyclin K = CDK13/Cyclin K (Homo sapiens, UniProt Q14004); assay: NanoBRET live-cell target engagement, CDK13-NanoLuc/Cyclin K in HEK-293; type: binding; conditions: CDK13/K, 10µM
CDK12/Cyclin K = CDK12/Cyclin K (Homo sapiens, UniProt Q9NYV4); assay: NanoBRET live-cell target engagement, CDK12-NanoLuc/Cyclin K in HEK-293; type: binding; conditions: 10µM
CDK17/Cyclin Y = CDK17/Cyclin Y (Homo sapiens, UniProt Q00537); assay: NanoBRET live-cell target engagement, CDK17-NanoLuc/Cyclin Y in HEK-293; type: binding; conditions: 10µM
CDK11A/Cyclin L2 = target: T1, CDK11A/Cyclin L2 (Homo sapiens, UniProt Q9UQ88); assay: NanoBRET live-cell target engagement, CDK11A-NanoLuc/Cyclin L2 in HEK-293; type: binding; conditions: 10µM
T1 sequence (Q9UQ88 1-783): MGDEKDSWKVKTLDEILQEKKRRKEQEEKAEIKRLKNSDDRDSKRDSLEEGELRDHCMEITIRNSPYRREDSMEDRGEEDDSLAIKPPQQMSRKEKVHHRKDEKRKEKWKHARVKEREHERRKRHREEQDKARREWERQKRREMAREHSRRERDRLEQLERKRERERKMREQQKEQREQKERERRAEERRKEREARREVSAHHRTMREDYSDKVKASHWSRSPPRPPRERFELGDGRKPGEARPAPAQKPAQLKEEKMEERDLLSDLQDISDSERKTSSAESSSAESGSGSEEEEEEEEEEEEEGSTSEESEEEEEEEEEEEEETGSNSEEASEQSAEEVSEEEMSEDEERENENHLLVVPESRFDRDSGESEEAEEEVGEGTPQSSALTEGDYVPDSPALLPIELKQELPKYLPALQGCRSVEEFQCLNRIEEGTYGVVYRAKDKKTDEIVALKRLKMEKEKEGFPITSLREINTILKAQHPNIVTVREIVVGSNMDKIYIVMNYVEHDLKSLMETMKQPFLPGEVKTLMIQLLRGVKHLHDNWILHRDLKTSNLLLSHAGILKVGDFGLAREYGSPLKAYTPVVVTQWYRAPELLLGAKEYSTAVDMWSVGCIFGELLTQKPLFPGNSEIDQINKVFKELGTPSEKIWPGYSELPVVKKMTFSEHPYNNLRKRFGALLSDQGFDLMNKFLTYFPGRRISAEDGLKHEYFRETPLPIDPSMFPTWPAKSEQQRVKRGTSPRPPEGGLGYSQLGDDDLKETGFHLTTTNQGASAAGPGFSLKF

CDK1/Cyclin E1 = CDK1/Cyclin E1 (Homo sapiens, UniProt P06493); assay: NanoBRET live-cell target engagement, CDK1-NanoLuc/Cyclin E1 in HEK-293; type: binding; conditions: CDK1/E1, 10µM
CDK8/Cyclin C = CDK8/Cyclin C (Homo sapiens, UniProt P49336); assay: NanoBRET live-cell target engagement, NanoLuc-CDK8/Cyclin C in HEK-293; type: binding; conditions: CDK8/C, 10µM
CDK7 = CDK7 (Homo sapiens, UniProt P50613); assay: NanoBRET live-cell target engagement, NanoLuc-CDK7 in HEK-293; type: binding; conditions: 10µM
CDK18/Cyclin Y = CDK18/Cyclin Y (Homo sapiens, UniProt Q07002); assay: NanoBRET live-cell target engagement, CDK18-NanoLuc/Cyclin Y in HEK-293; type: binding; conditions: 10µM
CDK20/Cyclin H = CDK20/Cyclin H (Homo sapiens, UniProt Q8IZL9); assay: NanoBRET live-cell target engagement, NanoLuc-CDK20/Cyclin H in HEK-293; type: binding; conditions: 10µM
CDK19/Cyclin C = CDK19/Cyclin C (Homo sapiens, UniProt Q9BWU1); assay: NanoBRET live-cell target engagement, NanoLuc-CDK19/Cyclin C in HEK-293; conditions: 10µM
CDK6/Cyclin D1 = CDK6/Cyclin D1 (Homo sapiens, UniProt Q00534); assay: NanoBRET live-cell target engagement, NanoLuc-CDK6/Cyclin D1 in HEK-293; type: binding; conditions: CDK6/D1
CDK5/CDK5R1 = CDK5/CDK5R1 (Homo sapiens, UniProt Q00535); assay: NanoBRET live-cell target engagement, CDK5-NanoLuc/CDK5R1 in HEK-293; type: binding; conditions: CDK5/CDK5R1, 10µM
CDK10/Cyclin L2 = CDK10/Cyclin L2 (Homo sapiens, UniProt Q15131); assay: NanoBRET live-cell target engagement, CDK10-NanoLuc/Cyclin L2 in HEK-293; conditions: 10µM
CDK11B/Cyclin L2 = CDK11B/Cyclin L2 (Homo sapiens, UniProt P21127); assay: NanoBRET live-cell target engagement, CDK11B-NanoLuc/Cyclin L2 in HEK-293; type: binding; conditions: 10µM
CDK16/Cyclin Y = CDK16/Cyclin Y (Homo sapiens, UniProt Q00536); assay: NanoBRET live-cell target engagement, CDK16-NanoLuc/Cyclin Y in HEK-293; type: binding; conditions: for IC50: CDK16/Y
[1] = average of replicates, read-out: Inhibition at 10µM (%) Average
[2] = read-out: Inhibition at 10µM (%) Replicate 1
[3] = read-out: Inhibition at 10µM (%) Replicate 2
[4] = n=3 average ± SEM, n=2 average to 2 significant figures, read-out: IC50 (nM) Average*
[5] = read-out: IC50 (nM) Replicate 1
[6] = read-out: IC50 (nM) Replicate 2
[7] = read-out: IC50 (nM) Replicate 3

Chain of CDK19/Cyclin C (Q9BWU1 whole entry): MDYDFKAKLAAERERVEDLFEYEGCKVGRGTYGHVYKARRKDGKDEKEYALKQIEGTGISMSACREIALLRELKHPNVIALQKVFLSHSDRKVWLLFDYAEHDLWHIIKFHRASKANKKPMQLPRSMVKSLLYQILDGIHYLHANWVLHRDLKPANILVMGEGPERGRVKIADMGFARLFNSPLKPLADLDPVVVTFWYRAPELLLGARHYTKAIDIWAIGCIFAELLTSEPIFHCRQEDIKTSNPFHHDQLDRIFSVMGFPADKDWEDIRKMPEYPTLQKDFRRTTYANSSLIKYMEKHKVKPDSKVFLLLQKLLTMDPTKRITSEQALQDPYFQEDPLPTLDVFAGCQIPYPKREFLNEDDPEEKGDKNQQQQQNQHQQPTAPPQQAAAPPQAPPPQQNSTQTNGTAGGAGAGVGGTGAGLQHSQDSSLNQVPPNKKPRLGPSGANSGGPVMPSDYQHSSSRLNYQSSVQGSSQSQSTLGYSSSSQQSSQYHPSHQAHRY
Chain of CDK19/Cyclin C (P24863 whole entry partner): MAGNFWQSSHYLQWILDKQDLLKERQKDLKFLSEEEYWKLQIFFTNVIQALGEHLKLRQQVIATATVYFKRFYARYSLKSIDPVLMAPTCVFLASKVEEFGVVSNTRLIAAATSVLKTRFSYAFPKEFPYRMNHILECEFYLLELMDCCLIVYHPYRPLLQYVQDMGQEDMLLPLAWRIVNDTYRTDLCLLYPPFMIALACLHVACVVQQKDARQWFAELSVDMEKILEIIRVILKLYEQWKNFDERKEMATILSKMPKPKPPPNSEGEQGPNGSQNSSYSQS
Chain of CDK1/Cyclin E1 (P06493 whole entry): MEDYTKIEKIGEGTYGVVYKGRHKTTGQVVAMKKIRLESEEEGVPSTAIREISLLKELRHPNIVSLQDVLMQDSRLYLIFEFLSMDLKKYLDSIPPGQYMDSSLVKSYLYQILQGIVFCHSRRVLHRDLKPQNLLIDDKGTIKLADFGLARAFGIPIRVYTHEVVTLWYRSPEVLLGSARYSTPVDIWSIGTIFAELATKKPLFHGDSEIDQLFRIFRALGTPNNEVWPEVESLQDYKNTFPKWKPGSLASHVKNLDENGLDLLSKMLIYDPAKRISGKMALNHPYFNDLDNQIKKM
Chain of CDK1/Cyclin E1 (P24864 whole entry partner): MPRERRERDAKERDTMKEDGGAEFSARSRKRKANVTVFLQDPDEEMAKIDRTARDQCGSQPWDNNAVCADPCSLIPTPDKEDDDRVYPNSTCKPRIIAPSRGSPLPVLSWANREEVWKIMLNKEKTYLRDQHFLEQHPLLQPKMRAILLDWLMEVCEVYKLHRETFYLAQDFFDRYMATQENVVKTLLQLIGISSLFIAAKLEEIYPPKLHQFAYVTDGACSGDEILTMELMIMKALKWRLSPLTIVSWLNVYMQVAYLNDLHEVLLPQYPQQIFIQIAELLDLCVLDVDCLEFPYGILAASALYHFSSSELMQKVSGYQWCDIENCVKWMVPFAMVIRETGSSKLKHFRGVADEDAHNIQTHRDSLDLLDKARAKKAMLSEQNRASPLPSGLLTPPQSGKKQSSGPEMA
Chain of CDK14/Cyclin Y (O94921 whole entry): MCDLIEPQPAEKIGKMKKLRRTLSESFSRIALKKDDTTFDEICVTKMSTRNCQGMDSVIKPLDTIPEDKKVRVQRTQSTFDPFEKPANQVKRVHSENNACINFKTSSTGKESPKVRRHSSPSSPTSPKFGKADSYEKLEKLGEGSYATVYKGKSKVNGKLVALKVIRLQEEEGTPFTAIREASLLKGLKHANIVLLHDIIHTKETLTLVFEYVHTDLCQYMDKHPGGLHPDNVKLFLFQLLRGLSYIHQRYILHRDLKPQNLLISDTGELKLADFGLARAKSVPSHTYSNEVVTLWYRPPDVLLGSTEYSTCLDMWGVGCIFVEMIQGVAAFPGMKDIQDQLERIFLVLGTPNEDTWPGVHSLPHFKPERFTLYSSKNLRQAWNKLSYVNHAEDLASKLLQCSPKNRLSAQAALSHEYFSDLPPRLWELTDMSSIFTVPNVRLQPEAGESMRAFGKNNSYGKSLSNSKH
Chain of CDK14/Cyclin Y (Q8ND76 whole entry partner): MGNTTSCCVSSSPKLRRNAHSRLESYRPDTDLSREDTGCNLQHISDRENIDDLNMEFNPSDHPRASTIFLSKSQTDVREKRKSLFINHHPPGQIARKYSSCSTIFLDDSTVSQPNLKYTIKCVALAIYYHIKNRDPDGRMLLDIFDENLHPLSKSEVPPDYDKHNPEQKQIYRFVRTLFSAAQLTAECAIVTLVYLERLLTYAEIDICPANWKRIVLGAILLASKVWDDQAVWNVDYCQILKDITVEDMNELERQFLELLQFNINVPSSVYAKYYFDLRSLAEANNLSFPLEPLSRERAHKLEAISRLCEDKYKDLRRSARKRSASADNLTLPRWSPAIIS
Chain of CDK18/Cyclin Y (Q07002 whole entry): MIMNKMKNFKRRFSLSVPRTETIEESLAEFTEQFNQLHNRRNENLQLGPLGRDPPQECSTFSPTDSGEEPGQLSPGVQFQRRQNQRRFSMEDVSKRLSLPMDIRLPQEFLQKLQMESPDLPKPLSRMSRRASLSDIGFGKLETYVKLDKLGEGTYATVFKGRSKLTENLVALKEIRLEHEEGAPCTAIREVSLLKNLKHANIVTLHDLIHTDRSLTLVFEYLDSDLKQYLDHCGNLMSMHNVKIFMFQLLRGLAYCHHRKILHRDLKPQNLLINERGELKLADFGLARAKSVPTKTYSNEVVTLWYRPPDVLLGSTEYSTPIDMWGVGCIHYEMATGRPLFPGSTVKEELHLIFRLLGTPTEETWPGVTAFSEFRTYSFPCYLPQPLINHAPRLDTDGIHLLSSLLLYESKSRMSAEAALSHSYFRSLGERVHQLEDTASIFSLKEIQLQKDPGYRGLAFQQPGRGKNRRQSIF
Chain of CDK18/Cyclin Y (Q8ND76 whole entry partner): as the sequence (Q8ND76 whole entry partner) above
Chain of CDK9/Cyclin K (P50750 whole entry): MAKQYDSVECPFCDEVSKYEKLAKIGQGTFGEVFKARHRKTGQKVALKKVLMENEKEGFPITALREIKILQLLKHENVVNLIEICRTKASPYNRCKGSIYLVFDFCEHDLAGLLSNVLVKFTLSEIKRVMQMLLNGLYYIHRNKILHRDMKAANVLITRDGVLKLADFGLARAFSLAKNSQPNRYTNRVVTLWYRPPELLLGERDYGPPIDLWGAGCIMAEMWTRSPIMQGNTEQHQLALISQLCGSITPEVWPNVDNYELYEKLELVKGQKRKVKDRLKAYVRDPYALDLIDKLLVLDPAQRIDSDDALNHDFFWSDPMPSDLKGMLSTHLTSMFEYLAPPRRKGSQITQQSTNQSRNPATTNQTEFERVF
Chain of CDK9/Cyclin K (O75909 whole entry partner): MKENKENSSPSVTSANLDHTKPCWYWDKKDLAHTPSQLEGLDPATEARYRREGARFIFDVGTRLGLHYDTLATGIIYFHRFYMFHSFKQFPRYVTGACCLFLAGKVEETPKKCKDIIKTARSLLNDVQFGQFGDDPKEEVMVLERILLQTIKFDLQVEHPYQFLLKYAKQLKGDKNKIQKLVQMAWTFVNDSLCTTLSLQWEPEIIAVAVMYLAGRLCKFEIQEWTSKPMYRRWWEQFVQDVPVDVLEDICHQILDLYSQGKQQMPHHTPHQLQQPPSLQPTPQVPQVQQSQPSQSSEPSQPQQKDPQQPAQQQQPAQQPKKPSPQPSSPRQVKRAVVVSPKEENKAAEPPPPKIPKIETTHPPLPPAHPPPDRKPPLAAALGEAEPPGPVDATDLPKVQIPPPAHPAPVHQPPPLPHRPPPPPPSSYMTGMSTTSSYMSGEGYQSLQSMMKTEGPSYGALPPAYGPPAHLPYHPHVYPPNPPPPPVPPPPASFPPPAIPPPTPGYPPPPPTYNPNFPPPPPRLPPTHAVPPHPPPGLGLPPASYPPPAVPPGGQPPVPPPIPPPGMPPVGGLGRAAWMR
Chain of CDK5/CDK5R1 (Q00535 whole entry): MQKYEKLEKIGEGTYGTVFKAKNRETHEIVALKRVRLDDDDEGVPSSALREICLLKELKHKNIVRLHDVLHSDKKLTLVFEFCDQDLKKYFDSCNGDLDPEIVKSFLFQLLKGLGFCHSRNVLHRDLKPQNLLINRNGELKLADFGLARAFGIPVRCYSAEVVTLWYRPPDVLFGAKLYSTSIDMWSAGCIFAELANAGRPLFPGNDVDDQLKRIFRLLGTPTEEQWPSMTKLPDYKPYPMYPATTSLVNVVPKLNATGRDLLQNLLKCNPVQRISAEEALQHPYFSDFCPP
Chain of CDK5/CDK5R1 (Q15078 whole entry partner): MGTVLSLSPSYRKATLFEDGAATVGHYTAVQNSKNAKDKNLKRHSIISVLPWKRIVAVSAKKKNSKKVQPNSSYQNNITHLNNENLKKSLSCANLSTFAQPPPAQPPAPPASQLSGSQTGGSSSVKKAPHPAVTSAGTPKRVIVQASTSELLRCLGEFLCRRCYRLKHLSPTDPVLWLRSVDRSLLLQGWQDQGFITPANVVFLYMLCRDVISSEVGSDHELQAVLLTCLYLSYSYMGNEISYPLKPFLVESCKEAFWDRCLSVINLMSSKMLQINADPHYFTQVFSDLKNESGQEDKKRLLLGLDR
Chain of CDK7 (P50613 whole entry): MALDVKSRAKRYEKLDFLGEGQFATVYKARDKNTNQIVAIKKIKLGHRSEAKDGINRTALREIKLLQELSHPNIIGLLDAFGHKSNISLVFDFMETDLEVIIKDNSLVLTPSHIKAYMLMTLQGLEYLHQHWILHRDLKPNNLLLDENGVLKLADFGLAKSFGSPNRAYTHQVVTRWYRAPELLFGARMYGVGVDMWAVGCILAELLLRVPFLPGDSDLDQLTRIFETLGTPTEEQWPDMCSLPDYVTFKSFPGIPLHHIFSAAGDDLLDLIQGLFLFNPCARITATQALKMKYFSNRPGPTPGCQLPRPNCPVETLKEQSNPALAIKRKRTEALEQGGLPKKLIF

For `C[C@H]1CC[C@H](n2c3cnccc3c3cnc(Nc4ccc5c(n4)CCN(C(=O)CO)C5)nc32)CC1` [AMG 925], the inhibition at 10 µM (CDK9/Cyclin K; [1]) was 39.8%, the inhibition at 10 µM (CDK9/Cyclin K; [2]) was 12.7% and the inhibition at 10 µM (CDK9/Cyclin K; [3]) was 67%. It also gave an IC50 (CDK15/Cyclin Y; [4]) of 820 ± 50 nM, an IC50 (CDK15/Cyclin Y; [5]) of 842 nM and an IC50 (CDK15/Cyclin Y; [6]) of 720 nM. It also gave an IC50 (CDK15/Cyclin Y; [7]) of 901 nM, an inhibition at 10 µM (CDK15/Cyclin Y; read-out: Inhibition at 10µM (%) Average, CDK15/Y, average of replicates) of 55.3% and an inhibition at 10 µM (CDK15/Cyclin Y; read-out: Inhibition at 10µM (%) Replicate 1, CDK15/Y) of 50.5%. The inhibition at 10 µM (CDK15/Cyclin Y; read-out: Inhibition at 10µM (%) Replicate 2, CDK15/Y) was 60.1%, the inhibition at 10 µM (CDK4/Cyclin D1; [1]) was 92.7% and the inhibition at 10 µM (CDK4/Cyclin D1; [2]) was 97.7%. The inhibition at 10 µM (CDK4/Cyclin D1; [3]) was 87.7%, the IC50 (CDK4/Cyclin D1; [4]) was 6 ± 2 nM and the IC50 (CDK4/Cyclin D1; [5]) was 3.2 nM. For the same compound, the IC50 (CDK4/Cyclin D1; [6]) was 4.9 nM, the IC50 (CDK4/Cyclin D1; [7]) was 11 nM and the IC50 (CDK14/Cyclin Y; [4]) was 600 ± 200 nM. It also gave an IC50 (CDK14/Cyclin Y; [5]) of 217 nM, an IC50 (CDK14/Cyclin Y; [6]) of 690 nM and an IC50 (CDK14/Cyclin Y; [7]) of 766 nM. For the same compound, the inhibition at 10 µM (CDK14/Cyclin Y; read-out: Inhibition at 10µM (%) Average, CDK14/Y, average of replicates) was 32.4%, the inhibition at 10 µM (CDK14/Cyclin Y; read-out: Inhibition at 10µM (%) Replicate 1, CDK14/Y) was 39% and the inhibition at 10 µM (CDK14/Cyclin Y; read-out: Inhibition at 10µM (%) Replicate 2, CDK14/Y) was 25.8%. For the same compound, the inhibition at 10 µM (CDK13/Cyclin K; [1]) was -2.5%, the inhibition at 10 µM (CDK13/Cyclin K; [2]) was 3.8% and the inhibition at 10 µM (CDK13/Cyclin K; [3]) was -8.8%. The inhibition at 10 µM (CDK12/Cyclin K; read-out: Inhibition at 10µM (%) Average, CDK12/K, average of replicates) was 8%, the inhibition at 10 µM (CDK12/Cyclin K; read-out: Inhibition at 10µM (%) Replicate 1, CDK12/K) was 7.8% and the inhibition at 10 µM (CDK12/Cyclin K; read-out: Inhibition at 10µM (%) Replicate 2, CDK12/K) was 8.2%. For the same compound, the inhibition at 10 µM (CDK17/Cyclin Y; read-out: Inhibition at 10µM (%) Average, CDK17/Y, average of replicates) was 43.6%, the inhibition at 10 µM (CDK17/Cyclin Y; read-out: Inhibition at 10µM (%) Replicate 1, CDK17/Y) was 42.5% and the inhibition at 10 µM (CDK17/Cyclin Y; read-out: Inhibition at 10µM (%) Replicate 2, CDK17/Y) was 44.7%. The inhibition at 10 µM (CDK11A/Cyclin L2; read-out: Inhibition at 10µM (%) Average, CDK11a/L2, average of replicates) was 6.7%, the inhibition at 10 µM (CDK11A/Cyclin L2; read-out: Inhibition at 10µM (%) Replicate 1, CDK11a/L2) was -0.9% and the inhibition at 10 µM (CDK11A/Cyclin L2; read-out: Inhibition at 10µM (%) Replicate 2, CDK11a/L2) was 14.4%. For the same compound, the inhibition at 10 µM (CDK1/Cyclin E1; [1]) was 34.5%, the inhibition at 10 µM (CDK1/Cyclin E1; [2]) was 45.4% and the inhibition at 10 µM (CDK1/Cyclin E1; [3]) was 23.6%. The inhibition at 10 µM (CDK8/Cyclin C; [1]) was 12.6%, the inhibition at 10 µM (CDK8/Cyclin C; [2]) was 13.8% and the inhibition at 10 µM (CDK8/Cyclin C; [3]) was 11.5%. For the same compound, the inhibition at 10 µM (CDK7; read-out: Inhibition at 10µM (%) Average, CDK7, average of replicates) was 27.8%, the inhibition at 10 µM (CDK7; read-out: Inhibition at 10µM (%) Replicate 1, CDK7) was 10.8% and the inhibition at 10 µM (CDK7; read-out: Inhibition at 10µM (%) Replicate 2, CDK7) was 44.9%. For the same compound, the inhibition at 10 µM (CDK18/Cyclin Y; read-out: Inhibition at 10µM (%) Average, CDK18/Y, average of replicates) was 28.7%, the inhibition at 10 µM (CDK18/Cyclin Y; read-out: Inhibition at 10µM (%) Replicate 1, CDK18/Y) was 11.9% and the inhibition at 10 µM (CDK18/Cyclin Y; read-out: Inhibition at 10µM (%) Replicate 2, CDK18/Y) was 45.6%. For the same compound, the inhibition at 10 µM (CDK20/Cyclin H; read-out: Inhibition at 10µM (%) Replicate 1, CDK20/H) was 24.8%, the inhibition at 10 µM (CDK20/Cyclin H; read-out: Inhibition at 10µM (%) Replicate 2, CDK20/H) was 6.8% and the inhibition at 10 µM (CDK19/Cyclin C; read-out: Inhibition at 10µM (%) Average, CDK19/C, average of replicates) was 16.1%. For the same compound, the inhibition at 10 µM (CDK19/Cyclin C; read-out: Inhibition at 10µM (%) Replicate 1, CDK19/C) was 17.8%, the inhibition at 10 µM (CDK19/Cyclin C; read-out: Inhibition at 10µM (%) Replicate 2, CDK19/C) was 14.4% and the inhibition at 10 µM (CDK6/Cyclin D1; [1]) was 99.1%. It also gave an inhibition at 10 µM (CDK6/Cyclin D1; [2]) of 98.6%, an inhibition at 10 µM (CDK6/Cyclin D1; [3]) of 99.5% and an IC50 (CDK6/Cyclin D1; [4]) of 7 ± 3 nM. The IC50 (CDK6/Cyclin D1; [5]) was 2.5 nM, the IC50 (CDK6/Cyclin D1; [6]) was 3.9 nM and the IC50 (CDK6/Cyclin D1; [7]) was 13 nM. The inhibition at 10 µM (CDK5/CDK5R1; [1]) was 22.1%, the inhibition at 10 µM (CDK5/CDK5R1; [2]) was 24.7% and the inhibition at 10 µM (CDK5/CDK5R1; [3]) was 19.6%. For the same compound, the inhibition at 10 µM (CDK10/Cyclin L2; read-out: Inhibition at 10µM (%) Average, CDK10/L2, average of replicates) was 2.1%, the inhibition at 10 µM (CDK10/Cyclin L2; read-out: Inhibition at 10µM (%) Replicate 1, CDK10/L2) was 1.6% and the inhibition at 10 µM (CDK10/Cyclin L2; read-out: Inhibition at 10µM (%) Replicate 2, CDK10/L2) was 2.6%. It also gave an inhibition at 10 µM (CDK11B/Cyclin L2; read-out: Inhibition at 10µM (%) Average, CDK11b/L2, average of replicates) of 8.5%, an inhibition at 10 µM (CDK11B/Cyclin L2; read-out: Inhibition at 10µM (%) Replicate 1, CDK11b/L2) of 5.1% and an inhibition at 10 µM (CDK11B/Cyclin L2; read-out: Inhibition at 10µM (%) Replicate 2, CDK11b/L2) of 11.9%. The IC50 (CDK16/Cyclin Y; [4]) was 200 ± 100 nM, the IC50 (CDK16/Cyclin Y; [5]) was 103 nM and the IC50 (CDK16/Cyclin Y; [6]) was 420 nM. It also gave an IC50 (CDK16/Cyclin Y; [7]) of 188 nM, an inhibition at 10 µM (CDK16/Cyclin Y; read-out: Inhibition at 10µM (%) Replicate 1, CDK16/Y) of 64.2% and an inhibition at 10 µM (CDK16/Cyclin Y; read-out: Inhibition at 10µM (%) Replicate 2, CDK16/Y) of 56.2%.
